Tested on: caspase 3
Assay: caspase 3 activity evaluation
Assay type: cell-based, human
Conditions: A549, 10, 20 and 50 nM
Description: To further elucidate the mechanism of cell death caused by the cytotoxicity of compound 14b, the Hoechst 33342 fluorochrome was used to observe the nucleus morphology, Annexin V-FITC double staining was performed to distinguish the apoptotic cells, and the caspase 3 colorimetric assay kit was used to detect the activity of caspase 3. […] At the early stage of apoptosis, different types of cells turn phosphatidylserine (PS) out toward the cell surface, that is, the outside of the cell membrane, which can be selectively marked with Annexin V. Additionally, in the late stage of apoptosis, the integrity of cell membrane is lost and can be stained with PI. […] Finally, considering the activation of caspase 3 is a central event in the process of apoptosis, the activity of caspase 3 was also evaluated.
Figure 4 Induction of apoptosis by compound 14b. […] (B) The percentages of cells in each apoptosis quantitated by flow cytometry through Annexin V-FITC double staining analysis. […] (C) The caspase 3 activity detected by the caspase 3 colorimetric assay kit after A549 cells were treated with compound 14b at concentrations of 10, 20 and 50 nM for 24 h. […]
samples were fixed in ice-cold 70% ethanol overnight and removed with ice-cold PBS for three times. […] After the incubation, the prepared cell samples were immediately analyzed. […]

COc1ccc(C(=O)c2ccc3c(ccn3C)c2)c2c1C=CC(C)(C)O2 [compound 14b, (5-methoxy-2,2-dimethyl-2H-chromen-8-yl)(1-methyl-1H-indol-5-yl)methanone]
activity of caspase 3: significantly activated and increased in a dose- and time-dependent manner

— publication PMC9921564, “Novel Indole-Containing Hybrids Derived from Millepachine: Synthesis, Biological Evaluation and Antitumor Mechanism Study” (Molecules, 2023)
